One compound from publication PMC4051426 (Biochemistry, 2014) can be followed below.

In the test the target is triosephosphate isomerase from chicken muscle (cTIM), loop 6 replacement mutant (L6RM) (Gallus gallus, UniProt P00940, V167P/W168E). Nature of the test: steady-state kinetics of isomerization. It counts as biochemical.
Sequence of triosephosphate isomerase from chicken muscle (cTIM), loop 6 replacement mutant (L6RM) (P00940 2-248 V167P/W168E): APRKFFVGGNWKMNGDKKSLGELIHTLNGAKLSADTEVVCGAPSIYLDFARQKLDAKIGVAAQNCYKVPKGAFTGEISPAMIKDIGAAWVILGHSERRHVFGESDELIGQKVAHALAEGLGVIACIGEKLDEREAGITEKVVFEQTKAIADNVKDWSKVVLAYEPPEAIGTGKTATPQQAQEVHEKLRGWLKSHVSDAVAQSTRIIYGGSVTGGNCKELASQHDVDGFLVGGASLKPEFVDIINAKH

Turning to `O=C[C@H](O)COP(=O)(O)O` [GAP, (R)-glyceraldehyde 3-phosphate], the “kcat/Km (M^-1 s^-1)” value is 470 M^–1 s^–1 (kcat/Km).
